Data taken from patent publication US20220125853A1, “MATERIALS AND METHODS FOR ENHANCING BONE CELL DIFFERENTIATION” (Mayo Foundation for Medical Education and Research, priority 2016, published 2022).

Experiments:
[1] = system: skeletally mature mice; experiment: Bone anabolic effect of EZH2 inactivation in skeletally mature mice; assay type: in vivo
Description: (§1) Bone stimulatory therapeutics that promote bone formation include bone morphogenetic proteins (e.g., BMP2) and intermittent treatment with parathyroid hormone (PTH) or PTH related protein, as well as antibody-suppression of WNT inhibitors (e.g., SOST). Furthermore, inactivation of EZH2, an epigenetic regulator with histone 3 lysine 27 (H3K27) methyltransferase activity, using a pharmacological inhibitor (GSK126) is bone anabolic in skeletally mature mice and osteo-protective in estrogen-depleted (ovariectomized) mice. These biological effects are directly related to the ability of EZH2 inhibition to promote osteogenic differentiation and inhibit adipogenic differentiation of mesenchymal stem cells.

[2] = system: estrogen-depleted (ovariectomized) mice; experiment: Osteo-protective effect of EZH2 inactivation in estrogen-depleted (ovariectomized) mice; assay type: in vivo
Description: as §1

[3] = system: MC3T3 cells; experiment: mRNAseq gene expression in differentiating MC3T3 cells / preosteoblasts; assay type: cell-based
Experimental: The molecular mechanisms by which EZH2 inhibition promotes osteogenic differentiation were assessed. […] This quiescent state is conducive for expression of bone-related extracellular matrix proteins (e.g., collagens) that support matrix mineralization. […] Several Wnt ligands (e.g., Wnt10b, Wnt10a, and Wnt6) are robustly expressed in differentiating MC3T3 cells.

[4] = system: adipose tissue-derived MSCs (AMSCs); experiment: Osteogenic differentiation of AMSCs (alkaline phosphatase activity, mineralization, osteogenic polypeptide expression); assay type: cell-based, human; conditions: throughout the cell culture time-course
Description: (§2) The effect of CytoD on adipose tissue-derived MSCs (AMSCs) was investigated. AMSCs offer several advantages over other sources of MSCs, particularly in the ease of tissue harvest, isolation and expansion to generate sufficient cell numbers for therapy. Because AMSCs have limited osteogenic potential, it is necessary to design molecular strategies to improve their ability to attain a mature osteoblastic phenotype. […] Furthermore, CytoD decreased protein levels of Enhancer of Zeste Homolog 2 (EZH2), an epigenetic suppressor of osteogenic differentiation that mediates heterochromatinization of bone-related genes by trimethylation of histone 3 lysine 27 (H3K27me3).

[5] = system: AMSCs; experiment: RNA-seq analysis of AMSCs in response to CytoD; assay type: cell-based, human; conditions: 24 hour
Description: as §2

[6] = system: BMSCs; experiment: RNA-seq analysis of BMSCs in response to CytoD; assay type: cell-based; conditions: 24 hour
[7] = system: Enhancer of Zeste Homolog 2 (EZH2); experiment: EZH2 protein levels and H3K27me3 marks in AMSCs; assay type: cell-based, human
Description: as §2

Row | SMILES | effect on bone [1] | effect on bone [2] | expression of pro-osteogenic Wnt10b ([3]; differentiating MC3T3 cells, EZH2 inhibition) | expression of the PTH receptor (Pthr1h) ([3]; preosteoblasts) | alkaline phosphatase activity [4] | expression of osteogenic polypeptides RUNX2, ALP, OPG and TGFβ3 [4] | mineralization [4] | program of other osteogenic markers, including those linked to the BMP2-RUNX2 axis (e.g., SP7) [5] | program of other osteogenic markers, including those linked to the BMP2-RUNX2 axis (e.g., SP7) [6] | levels of H3K27me3 marks [7] | protein levels of EZH2 [7]
1 | CC[C@H](C)n1cc(C)c2c(C(=O)NCc3c(C)cc(C)[nH]c3=O)cc(-c3ccc(N4CCNCC4)nc3)cc21 [GSK126] | bone anabolic | osteo-protective | greatly up-regulated | enhanced | – | – | – | – | – | – | –
2 | C=C1[C@@H](C)[C@H]2[C@H](Cc3ccccc3)NC(=O)[C@]23[C@H](OC(C)=O)/C=C/[C@@](C)(O)C(=O)[C@@H](C)C/C=C/[C@H]3[C@@H]1O [CytoD, cytochalasin D] | – | – | – | – | significant increases | significant increases | significant increases | significant upregulation | significant upregulation | decreased levels | decreased
